In ChEMBL document CHEMBL3885881, “DrugMatrix”:

Species: Rattus norvegicus
Assay: DrugMatrix - Regimen: Daily Repeat
Type: toxicity, organism-based, Sprague-Dawley
Design: regimen Daily Repeat, gender Male, age 6-8 weeks
Details: in vivo, iv, vehicle 100 % SALINE; for ABSOLUTE BASOPHIL / ABSOLUTE EOSINOPHIL / ABSOLUTE LYMPHOCYTE / ABSOLUTE MONOCYTE / ABSOLUTE SEGMENTED NEUTROPHIL / BASOPHIL / EOSINOPHIL / ERYTHROCYTE COUNT / HEMATOCRIT / HEMOGLOBIN / LEUKOCYTE COUNT / LYMPHOCYTE / MEAN CORPUSCULAR HEMOGLOBIN / MEAN CORPUSCULAR HEMOGLOBIN CONCENTRATION / MEAN CORPUSCULAR VOLUME / MONOCYTE / NEUTROPHIL / NUCLEATED RED BLOOD CELLS / PLATELET COUNT: tissue Blood; for ALANINE AMINOTRANSFERASE / ALBUMIN / ALKALINE PHOSPHATASE / ASPARTATE AMINOTRANSFERASE / BLOOD UREA NITROGEN / CARBON DIOXIDE / CHLORIDE / CHOLESTEROL / CREATINE PHOSPHOKINASE / CREATININE / GLUCOSE / LACTATE DEHYDROGENASE / LIPASE / PHOSPHORUS / POTASSIUM / SODIUM / TOTAL BILIRUBIN / TOTAL PROTEIN / URIC ACID: tissue Plasma
[1] = 10 mg/kg, 120 h, dose level Low, time 5 day
[2] = 350 mg/kg, 72 h, dose level High, time 3 day
[3] = 350 mg/kg, 120 h, dose level High, time 5 day

For `O=C(O)P(=O)(O)O` [FOSCARNET], the “ABSOLUTE BASOPHIL” value [1] was 0 CELLS/uL, the “ABSOLUTE EOSINOPHIL” value [1] was 341 CELLS/uL and the “ABSOLUTE LYMPHOCYTE” value [1] was 13776.67 CELLS/uL. For the same compound, the “ABSOLUTE MONOCYTE” value [1] was 353.33 CELLS/uL, the “ABSOLUTE SEGMENTED NEUTROPHIL” value [1] was 929 CELLS/uL and the BASOPHIL [1] was 0%. The EOSINOPHIL [1] was 2%, the “ERYTHROCYTE COUNT” value [1] was 5.8 x10E6/uL and the HEMATOCRIT [1] was 36.87%. The HEMOGLOBIN [1] was 13.6 G/DL, the “LEUKOCYTE COUNT” value [1] was 15.4 x10E3/uL and the LYMPHOCYTE [1] was 89.67%. For the same compound, the “MEAN CORPUSCULAR HEMOGLOBIN” value [1] was 23.47 pg, the “MEAN CORPUSCULAR HEMOGLOBIN CONCENTRATION” value [1] was 36.93 G/DL and the “MEAN CORPUSCULAR VOLUME” value [1] was 63.6 fL. For the same compound, the MONOCYTE [1] was 2.33%, the NEUTROPHIL [1] was 6% and the “NUCLEATED RED BLOOD CELLS” value [1] was 0 /100WBC. The “PLATELET COUNT” value [1] was 1343 x10E3/uL, the “ALANINE AMINOTRANSFERASE” value [1] was 47.67 u/L and the ALBUMIN [1] was 4.3 G/DL. For the same compound, the “ALKALINE PHOSPHATASE” value [1] was 297.67 u/L, the “ASPARTATE AMINOTRANSFERASE” value [1] was 89 u/L and the “BLOOD UREA NITROGEN” value [1] was 17.67 mg/dL. For the same compound, the “CARBON DIOXIDE” value [1] was 23.67 mmol/L, the CHLORIDE [1] was 105 MEQ/L and the CHOLESTEROL [1] was 61.33 mg/dL. The “CREATINE PHOSPHOKINASE” value [1] was 1049.33 u/L, the CREATININE [1] was 0.22 mg/dL and the GLUCOSE [1] was 193.67 mg/dL. The “LACTATE DEHYDROGENASE” value [1] was 149 u/L, the LIPASE [1] was 8 u/L and the PHOSPHORUS [1] was 11.77 mg/dL. The POTASSIUM [1] was 5.32 MEQ/L, the SODIUM [1] was 145.43 MEQ/L and the “TOTAL BILIRUBIN” value [1] was 0.23 mg/dL. The “TOTAL PROTEIN” value [1] was 5.93 G/DL, the “URIC ACID” value [1] was 1.67 mg/dL and the “ABSOLUTE BASOPHIL” value [2] was 0 CELLS/uL. For the same compound, the “ABSOLUTE EOSINOPHIL” value [2] was 0 CELLS/uL, the “ABSOLUTE LYMPHOCYTE” value [2] was 12652 CELLS/uL and the “ABSOLUTE MONOCYTE” value [2] was 325.67 CELLS/uL. For the same compound, the “ABSOLUTE SEGMENTED NEUTROPHIL” value [2] was 1422.33 CELLS/uL, the BASOPHIL [2] was 0% and the EOSINOPHIL [2] was 0%. The “ERYTHROCYTE COUNT” value [2] was 5.36 x10E6/uL, the HEMATOCRIT [2] was 33.47% and the HEMOGLOBIN [2] was 12.6 G/DL. For the same compound, the “LEUKOCYTE COUNT” value [2] was 14.4 x10E3/uL, the LYMPHOCYTE [2] was 88% and the “MEAN CORPUSCULAR HEMOGLOBIN” value [2] was 23.57 pg. For the same compound, the “MEAN CORPUSCULAR HEMOGLOBIN CONCENTRATION” value [2] was 37.67 G/DL, the “MEAN CORPUSCULAR VOLUME” value [2] was 62.47 fL and the MONOCYTE [2] was 2.33%. The NEUTROPHIL [2] was 9.67%, the “NUCLEATED RED BLOOD CELLS” value [2] was 0 /100WBC and the “PLATELET COUNT” value [2] was 1373.67 x10E3/uL. For the same compound, the “ALANINE AMINOTRANSFERASE” value [2] was 45 u/L, the ALBUMIN [2] was 4.13 G/DL and the “ALKALINE PHOSPHATASE” value [2] was 377 u/L. For the same compound, the “ASPARTATE AMINOTRANSFERASE” value [2] was 95.33 u/L, the “BLOOD UREA NITROGEN” value [2] was 15.67 mg/dL and the “CARBON DIOXIDE” value [2] was 26 mmol/L. For the same compound, the CHLORIDE [2] was 102.67 MEQ/L, the CHOLESTEROL [2] was 71 mg/dL and the “CREATINE PHOSPHOKINASE” value [2] was 483.67 u/L. The CREATININE [2] was 0.18 mg/dL, the GLUCOSE [2] was 145.33 mg/dL and the “LACTATE DEHYDROGENASE” value [2] was 795 u/L. It also gave an LIPASE [2] of 8.33 u/L, a PHOSPHORUS [2] of 9.37 mg/dL and a POTASSIUM [2] of 6.24 MEQ/L. The SODIUM [2] was 142.23 MEQ/L, the “TOTAL BILIRUBIN” value [2] was 0.2 mg/dL and the “TOTAL PROTEIN” value [2] was 5.57 G/DL. The “URIC ACID” value [2] was 1.27 mg/dL, the “ABSOLUTE BASOPHIL” value [3] was 0 CELLS/uL and the “ABSOLUTE EOSINOPHIL” value [3] was 0 CELLS/uL. The “ABSOLUTE LYMPHOCYTE” value [3] was 12914 CELLS/uL, the “ABSOLUTE MONOCYTE” value [3] was 384.67 CELLS/uL and the “ABSOLUTE SEGMENTED NEUTROPHIL” value [3] was 1034.67 CELLS/uL. For the same compound, the BASOPHIL [3] was 0%, the EOSINOPHIL [3] was 0% and the “ERYTHROCYTE COUNT” value [3] was 5.17 x10E6/uL. For the same compound, the HEMATOCRIT [3] was 33.93%, the HEMOGLOBIN [3] was 13.03 G/DL and the “LEUKOCYTE COUNT” value [3] was 14.33 x10E3/uL. For the same compound, the LYMPHOCYTE [3] was 90.33%, the “MEAN CORPUSCULAR HEMOGLOBIN” value [3] was 25.2 pg and the “MEAN CORPUSCULAR HEMOGLOBIN CONCENTRATION” value [3] was 38.4 G/DL. The “MEAN CORPUSCULAR VOLUME” value [3] was 65.67 fL, the MONOCYTE [3] was 2.67% and the NEUTROPHIL [3] was 7%. For the same compound, the “NUCLEATED RED BLOOD CELLS” value [3] was 0 /100WBC, the “PLATELET COUNT” value [3] was 1324.67 x10E3/uL and the “ALANINE AMINOTRANSFERASE” value [3] was 45 u/L. For the same compound, the ALBUMIN [3] was 4.13 G/DL, the “ALKALINE PHOSPHATASE” value [3] was 385.67 u/L and the “ASPARTATE AMINOTRANSFERASE” value [3] was 74.67 u/L. For the same compound, the “BLOOD UREA NITROGEN” value [3] was 19 mg/dL, the “CARBON DIOXIDE” value [3] was 28.67 mmol/L and the CHLORIDE [3] was 103.67 MEQ/L. The CHOLESTEROL [3] was 69.33 mg/dL, the “CREATINE PHOSPHOKINASE” value [3] was 209.67 u/L and the CREATININE [3] was 0.22 mg/dL. For the same compound, the GLUCOSE [3] was 170 mg/dL, the “LACTATE DEHYDROGENASE” value [3] was 103.33 u/L and the LIPASE [3] was 9 u/L. For the same compound, the PHOSPHORUS [3] was 10.83 mg/dL, the POTASSIUM [3] was 6.68 MEQ/L and the SODIUM [3] was 143.67 MEQ/L. For the same compound, the “TOTAL BILIRUBIN” value [3] was 0.23 mg/dL, the “TOTAL PROTEIN” value [3] was 5.9 G/DL and the “URIC ACID” value [3] was 1.53 mg/dL.
